Experimental data as given in patent US11084879B2, “Compositions and methods for treating pancreatitis and pain with death receptor agonists” (The Johns Hopkins University, priority 2016, dated 2021).
Read-outs that look alike come from different tables or passages of the source.

Columns and labels:
activated PSCs = assay: Apoptosis markers in activated PSCs, TRAILPEG versus conventional toxic agents; format: cell-based, human; conditions: 48 hr, DOX 100 nM, CIS 10 μM, H2O2 10 μM
[1] = humans; cited from earlier work
[2] = rodents; cited from earlier work
EtOH-activated PSCs = assay: Caspase 3/7 assay in EtOH-activated PSCs; format: cell-based, human; conditions: alcohol-activated PSCs; different concentrations (0-10^3 ng/mL), alcohol still present in culture
Method: Caspase 3/7 activities were measured by caspase3/7 assay kit (Promega) according to the manufacturer's protocol. The luminescence of each sample was measured on a plate reader (Bio-Tek Instruments Inc) with parameters of 1 min lag time and 0.5 sec/well read time (n=4).
To investigate TRAIL-induced apoptosis in alcohol-activated PSCs, 2×10^4 cells were cultured for overnight in a 96-well plate and then activated with 50 mM EtOH for 48 h. […] Apoptosis was measured by MTT cell death assay and caspase 3/7 assay as described above.

| Compound | killing of activated PSCs by conventional toxic agents (activated PSCs) | other results |
| --- | --- | --- |
| N.N.[Cl][Pt][Cl] [cisplatin] | difficult to kill |  |
| COc1cccc2c1C(=O)c1c(O)c3c(c(O)c1C2=O)C[C@@](O)(C(=O)CO)C[C@@H]3O[C@H]1C[C@H](N)[C@H](O)[C@H](C)O1 [doxorubicin] | difficult to kill |  |
| OO [hydrogen peroxide] | difficult to kill |  |
| TRAIL: TNF (Tumor Necrosis Factor)-related apoptosis-inducing ligand, protein ligand that induces apoptosis |  | t1/2 [1]: < 30 min; t1/2 [2]: less than 5 min |
| conatumumab: human anti-DR5 agonistic antibody (Creative Biolabs) |  | apoptosis (caspase 3/7 activity, FIG. 9) (EtOH-activated PSCs): induced strong apoptosis dose-dependently |
